Source: PubChem BioAssay (NCI)
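Five compound concentrations were applied to cells in 96-well plates for 48 hours; endpoints were derived by simple linear interpolation of the resulting dose-response curve. TGI: total growth inhibition.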

Experiments:
Experiment in all cases: inhibition of tumour cell growth, NCI panel, 48 h
[1] = tested on: CAKI-1 renal
[2] = tested on: HL-60(TB) leukemia
[3] = tested on: UO-31 renal
[4] = tested on: SF-539 CNS
[5] = tested on: SK-OV-3 ovarian
[6] = tested on: MALME-3M melanoma
[7] = tested on: KM12 colon
[8] = tested on: MDA-MB-231 breast
[9] = tested on: MDA-MB-435
[10] = tested on: NCI/ADR-RES ovarian
[11] = tested on: HCT-116 colon
[12] = tested on: LOX IMVI melanoma
[13] = tested on: NCI-H460 lung
[14] = tested on: UACC-257 melanoma
[15] = tested on: SNB-75 CNS
[16] = tested on: UACC-62 melanoma
[17] = tested on: SK-MEL-28 melanoma
[18] = tested on: HS 578T breast
[19] = tested on: TK-10 renal
[20] = tested on: NCI-H226 lung
[21] = tested on: IGROV1 ovarian
[22] = tested on: M14 melanoma
[23] = tested on: MOLT-4 leukemia
[24] = tested on: OVCAR-5 ovarian
[25] = tested on: RXF 393 renal
[26] = tested on: SR leukemia
[27] = tested on: A498 renal
[28] = tested on: K-562 leukemia
[29] = tested on: COLO 205 colon
[30] = tested on: DU-145 prostate
[31] = tested on: OVCAR-8 ovarian
[32] = tested on: ACHN renal
[33] = tested on: SN12C renal
[34] = tested on: U251 CNS
[35] = tested on: MDA-N
[36] = tested on: HOP-92 NSCLC
[37] = tested on: NCI-H23 lung
[38] = tested on: HT29 colon
[39] = tested on: MCF7 breast
[40] = tested on: A549 NSCLC
[41] = tested on: BT-549 breast
[42] = tested on: SW-620 colon
[43] = tested on: PC-3 prostate
[44] = tested on: SK-MEL-5 melanoma
[45] = tested on: T-47D breast
[46] = tested on: HOP-62 NSCLC
[47] = tested on: SF-268 CNS
[48] = tested on: NCI-H522 lung
[49] = tested on: 786-0 renal
[50] = tested on: OVCAR-4 ovarian
[51] = tested on: SNB-19 CNS
[52] = tested on: SF-295 CNS
[53] = tested on: HCT-15 colon
[54] = tested on: CCRF-CEM leukemia
[55] = tested on: SK-MEL-2 melanoma
[56] = tested on: EKVX NSCLC
[57] = tested on: OVCAR-3 ovarian
[58] = tested on: RPMI-8226 leukemia
[59] = tested on: HCC-2998 colon

Measured: TGI

NC1=CN2c3ccccc3N(CC(=O)N3CCOCC3)C2C=C1 (stereo not drawn)
> 100 µM: [1] | [2] | [3] | [4] | [5] | [6] | [7] | [8] | [9] | [10] | [11] | [12] | [13] | [14] | [15] | [16] | [17] | [18] | [19] | [20] | [21] | [22] | [23] | [24] | [25] | [26] | [27] | [28] | [29] | [30] | [31] | [32] | [33] | [34] | [35] | [36] | [37] | [38] | [39] | [40] | [41] | [42] | [43] | [44] | [45] | [46] | [47] | [48] | [49] | [50] | [51] | [52] | [53] | [54] | [55] | [56]

CN(C)c1ccc(C(=C2C=CC(=[N+](C)C)C=C2)c2c(O)c(S(=O)(=O)[O-])cc3cc(S(=O)(=O)O)ccc23)cc1
> 100 µM: [1] | [3] | [4] | [5] | [6] | [7] | [8] | [9] | [10] | [11] | [12] | [13] | [14] | [15] | [16] | [17] | [18] | [19] | [20] | [21] | [22] | [23] | [24] | [25] | [26] | [27] | [57] | [28] | [29] | [30] | [58] | [31] | [32] | [33] | [34] | [35] | [36] | [37] | [38] | [39] | [59] | [40] | [41] | [42] | [43] | [44] | [45] | [46] | [47] | [48] | [49] | [50] | [51] | [52] | [53] | [55] | [56]
